This data set in a line: solvent given as SMILES.

Regarding `CCOC(=O)c1c(-c2cc3ccccc3oc2=O)nn(-c2ccc(Cl)cc2)c1C(=O)OCC`, under “in ClCCl”, the emission maximum is recorded as 402 nm.

`Oc1ccc(/N=C/c2ccccc2Oc2ccccc2)cc1`: the emission maximum by setting is: (in C1CCCCC1) 410 nm; (in C1COCCO1) 414 nm; (in CC#N) 424 nm; (in CC(C)=O) 423 nm; (in CC(C)CO) 410 nm; (in CCCCC) 410 nm. Besides, the emission maximum is given as 428 nm (in CCCCCC); 420 nm (in CCCCCCCCO); 413 nm (in CCCCCCCO); 413 nm (in CCCCCCO); 419 nm (in CCCCO); 410 nm (in CCCCOC(C)=O). The emission maximum reads like this: (in CCCO) 415 nm; (in CCO) 415 nm; (in CCOC(C)=O) 412 nm; (in CCOCC) 427 nm; (in CN(C)C=O) 423 nm; (in CO) 415 nm. Besides, the emission maximum by setting is: (in CS(C)=O) 418 nm; (in Cc1ccccc1) 410 nm; (in Cc1ccccc1C) 414 nm; (in ClC(Cl)Cl) 415 nm; (in ClCCl) 414 nm; (in OCCO) 405 nm. This compound returned an emission maximum (in c1ccccc1) of 414 nm.

Compound `CCOC(=O)c1c2c3c(ccc(Cl)c3c3cc4ccccc4cc13)N(C)C2=O` had an emission maximum (in CC#N) of 414 nm.

`CCn1c2ccccc2sc2c(C#N)c3[nH]c4ccccc4sc3c(C#N)c21`: for the setting “in ClC(Cl)Cl”, the emission maximum worked out at 615 nm.

With `CN(C)c1ccc2c(c1)C(C)(C)C1=CC(=[N+](C)C)C=CC1=C2C#Cc1ccccc1`, the emission maximum reads like this: (in CO) 705 nm; (in O) 708 nm.

Turning to `F[B-]1(F)n2cccc2C(c2c3ccccc3c(-c3ccccc3)c3ccccc23)=C2C=CC=[N+]21`, the emission maximum is reported as 524 nm (in CC#N); 564 nm (in CCCCCC); 522 nm (in CCO); 526 nm (in CN(C)C=O); 529 nm (in Cc1ccccc1); 526 nm (in ClCCl).

Regarding `COC(=O)c1nc(-c2ccco2)oc1C`, the emission maximum runs as follows: (in C1CCCCC1) 302 nm; (in CC#N) 318 nm; (in CCO) 323 nm; (in CCOC(C)=O) 304 nm.

As to `Cc1ccc(C2=C3C=CC([Te]c4ccccc4)=[N+]3[B-](F)(F)n3c([Te]c4ccccc4)ccc32)cc1`, the emission maximum (in C1CCOC1) is on record as 659 nm.

With `CCN(CC)c1ccc2c(c1)oc(=O)c1c(=O)oc3cc(Br)ccc3c12`, the emission maximum (in CS(C)=O) was 572 nm and the emission maximum (in ClCCl) is 540 nm.

Take `Cc1nc(-c2ccc(N3c4ccccc4C(c4ccccc4)(c4ccccc4)c4ccccc43)cc2)cc(-c2ccc(N3c4ccccc4C(c4ccccc4)(c4ccccc4)c4ccccc43)cc2)n1`: the emission maximum (in Cc1ccccc1) was found to be 453 nm and the emission maximum (in O=P(c1ccccc1)(c1ccccc1)c1ccc2oc3ccc(P(=O)(c4ccccc4)c4ccccc4)cc3c2c1) was 458 nm.

Turning to `CC(C)[Si](C#Cc1c2ccc(C(C)(C)C)cc2c(C#Cc2c3ccc(C(C)(C)C)cc3c(C#Cc3c4ccc(C(C)(C)C)cc4c(C#C[Si](C(C)C)(C(C)C)C(C)C)c4ccc(C(C)(C)C)cc34)c3ccc(C(C)(C)C)cc23)c2ccc(C(C)(C)C)cc12)(C(C)C)C(C)C`, the emission maximum (in Cc1ccccc1) was found to be 589 nm.

For `Cc1cc(=O)oc2cc3c4ccc(C(C)(C)C)cc4c4cc(C(C)(C)C)ccc4c3cc12`, the emission maximum (in ClC(Cl)Cl) is on record as 423 nm.

For the compound `CC(C)c1ccc2ccc3c(C(C)C)ccc4ccc1c2c43`, the emission maximum runs as follows: (in CCCCCC) 380 nm; (in CO) 380 nm; (in ClCCl) 381 nm.

In the case of `OC1(c2ccc(-c3cccs3)s2)CCC1`, the emission maximum is, setting by setting: (in C1CCOC1) 470 nm; (in CC#N) 460 nm; (in CCCCCC) 465 nm; (in CCO) 415 nm; (in OCCOCCO) 465 nm; (in c1ccncc1) 468 nm.

As to `CC(=O)c1ccc(/C=C/C=C/C2=NC3C(=O)NC(N)=NC3N2[C@H]2C[C@H](O)[C@@H](CO)O2)cc1` (some centres undefined), the emission maximum by setting is: (in C1COCCO1) 494 nm; (in CC#N) 547 nm; (in CO) 554 nm.

For the compound `CCCCCCN1C(=O)c2cccc3cc(/N=C\c4ccc(N5CCOCC5)cc4)cc(c23)C1=O`, the emission maximum (in ClC(Cl)Cl) came to 557 nm.

Turning to `[NH3+]C(Cc1ccc(O)cc1)C(=O)[O-]` (centres undefined), the emission maximum (in O) was 304 nm.

Under “in ClCCl”, `c1ccc2c(-c3c4ccccc4c(-c4ccc(-n5c6ccccc6c6ccccc65)cc4)c4ccccc34)cccc2c1` registered an emission maximum of 421 nm.

In turn, `c1ccc(C2c3ccccc3-c3ccccc32)cc1` registered an emission maximum (in CCO) of 305 nm.

Where the note is “in CN(C)C=O”, `Fc1cc(-c2ccc(-c3nc4cc(Br)ccc4[nH]3)cc2)ccc1-c1ccc(-c2nc3cc(Br)ccc3[nH]2)cc1` gave an emission maximum of 417 nm.

Compound `COc1cc2oc(=O)c3c4ccc(C(=O)c5ccccc5)cc4c4ccc5cccc6c(c1)c2c3c4c56` showed an emission maximum (in C1CCOC1) of 443 nm.

The compound `c1cc2ccc3[s+]c4ccc5cccc6c7cccc8c(c1)c2c3c(c87)c4c56` displayed an emission maximum (in ClCCl) of 643 nm.

For the setting “in CC#N”, `Cn1c(-c2ccc(-c3nc(-c4ccccc4)c(-c4ccccc4)n3C)s2)nc(-c2ccccc2)c1-c1ccccc1` returned an emission maximum of 470 nm.

For the setting “in ClCCl”, `N#Cc1ccc(-n2c(-c3ccc(-c4ccc(-c5nc6c7ccccc7c7ccccc7c6n5-c5ccc(C#N)c6ccccc56)cc4)cc3)nc3c4ccccc4c4ccccc4c32)c2ccccc12` gave an emission maximum of 430 nm.

Where the note is “in ClCCl”, `CC1(C)c2ccccc2-c2cc3c(cc21)c1ccccc1n3-c1ccccc1` yielded an emission maximum of 391 nm.

Take `c1cc(-n2c3ccccc3c3ccccc32)c(-c2nc3ccccn3n2)c(-n2c3ccccc3c3ccccc32)c1`: under “in Cc1ccccc1”, the emission maximum came to 397 nm.

In turn, `c1ccc(-c2nc(-c3ccccc3)nc(-c3ccc(-n4c5ccc(-n6c7ccccc7c7ccccc76)cc5c5ccc6c(c7ccccc7n6-c6ccccc6)c54)cc3)n2)cc1` had an emission maximum (in Cc1ccccc1) of 463.87 nm.

Turning to `COc1cccc2cc(C)c3c4ccccc4[nH]c3c12`, the emission maximum (in ClCCl) came to 365 nm.

The compound `C(=C\c1ccncn1)/c1ccc(-c2ccco2)cc1` showed an emission maximum (in ClCCl) of 401 nm.

Turning to `c1ccc(-c2cc(-c3ccc4ccc5cccc6ccc3c4c56)ccn2)nc1`, the emission maximum (in C1CCOC1) was found to be 394 nm; the emission maximum (in CC#N) amounted to 410 nm; the emission maximum (in CCC#N) was found to be 408 nm; the emission maximum (in CCCC#N) is on record as 408 nm; the emission maximum (in CCCCCC) was found to be 385 nm; the emission maximum (in CCCO) worked out at 429 nm. In addition, the emission maximum was determined as 431 nm (in CCO), 438 nm (in CO) and 393 nm (in Cc1ccccc1).

In the case of `COc1cc(OC)c2c(c1)C(=O)c1cc(OC)cc(OC)c1-2`, the emission maximum (in C1CCCCC1) came out at 585 nm.

`C(=C\c1nc2ccccc2[nH]1)/c1ccc(/C=C/c2nc3ccccc3[nH]2)cc1` showed an emission maximum (in C1CCOC1) of 428 nm; an emission maximum (in CC#N) of 427 nm; an emission maximum (in CC(C)=O) of 427 nm; an emission maximum (in CN(C)C=O) of 433 nm; an emission maximum (in CO) of 422 nm; an emission maximum (in CS(C)=O) of 439 nm.

For the compound `F[B-]1(F)n2c(-c3ccccc3)cc(-c3ccccc3)c2N=C2C(c3ccccc3)=CC(c3ccccc3)=[N+]21`, the emission maximum stood at 673 nm (in CC#N) and 672 nm (in ClC(Cl)Cl).

In the case of `c1cc2ccc3ccc(-c4ccc(-c5nnc(-c6ccc(-c7nnc(-c8ccc(-c9ccc%10ccc%11cccc%12ccc9c%10c%11%12)s8)o7)cc6)o5)s4)c4ccc(c1)c2c34`, the emission maximum amounted to 373 nm (in C1COCCO1); 398 nm (in CC#N); 373 nm (in CC(=O)N(C)C); 418 nm (in CCCCCCCCCCO); 393 nm (in CCCCCCCCO); 394 nm (in CCCCCCO). Also, the emission maximum (in CCCCO) is given as 393 nm; the emission maximum (in CCO) is recorded as 393 nm; the emission maximum (in CS(C)=O) stood at 374 nm; the emission maximum (in Cc1ccccc1) stood at 419 nm; the emission maximum (in ClC(Cl)Cl) was found to be 373 nm.

With `CCCCn1c2ccc(-c3cccc(F)c3)cc2c2ccc3c4cc(-c5cccc(F)c5)ccc4n(CCCC)c3c21`, where the note is “in ClC(Cl)Cl”, the emission maximum was found to be 411 nm.

The compound `Oc1ccccc1` yielded an emission maximum (in C1CCCCC1) of 294.99 nm.

On to `COC(=O)c1nc2c(OCc3ccccc3)nc(N)nc2n1Cc1ccccc1`, for which the emission maximum was determined as 376 nm (in C1COCCO1), 382 nm (in CC#N), 405 nm (in CO) and 371 nm (in ClCCl).

As for `C(=C\c1c2ccccc2cc2ccccc12)/c1ccccc1`, the emission maximum by setting is: (in CC1CCCCC1) 468 nm; (in CC#N) 476 nm.

Consider `CC(C)(C)NC(=O)c1ccc2ccc3cccc4ccc1c2c34`, for which the emission maximum (in ClC(Cl)Cl) is given as 382 nm.

In the case of `C[n+]1c2c(c(-c3ccccc3)c3c1CCCC3)CCCC2`, where the note is “in CCO”, the emission maximum worked out at 420 nm.

As for `CC(C)(C)c1ccc(-c2nc3c4ccc(-c5c6ccccc6cc6ccccc56)cc4c4cc(-c5c6ccccc6cc6ccccc56)ccc4c3n2-c2ccc(C(C)(C)C)cc2)cc1`, the emission maximum reads like this: (in C1CCOC1) 428 nm; (in C1COCCO1) 429 nm; (in CC#N) 455 nm; (in CCCCCC) 419 nm; (in CCCCOCCCC) 424 nm; (in CCN(CC)CC) 421 nm. The emission maximum (in CCOC(C)=O) is 429 nm; the emission maximum (in CCOCC) was determined as 424 nm; the emission maximum (in CN(C)C=O) amounted to 451 nm; the emission maximum (in Cc1ccccc1) worked out at 428 nm; the emission maximum (in ClC=C(Cl)Cl) is on record as 429 nm; the emission maximum (in ClCCl) came to 442 nm.
